In US20250092360A1, “METHODS AND COMPOSITIONS FOR GENERATING SOMATOSTATIN+ INTERNEURONS FROM HUMAN FOREBRAIN NEURAL PROGENITOR CELLS” (Trailhead Biosystems Inc., priority 2023, published 2025):
“Also recorded” adds a separate entry of the source.

Legend:
[1] = system: human pluripotent stem cells; test: Factor criticality analysis, stage 1 recipe (dynamic profile analysis); assay type: cell-based; settings: other five stage 1 factors present, FIG. 11; for expression level of FEZF2 when the factor is removed: 2000 with all six factors; for expression level of SIX3 when the factor is removed: 3000 with all six factors; for expression level of OTX2 when the factor is removed: 5500 with all six factors
Description: To assess the impact of the elimination of each validated factor, dynamic profile analysis was used and compared the expression level of genes of interest in absence of each finalized factor while others are present. […] When Purmorphamine was removed, levels of FEZF2 and SIX3 were decreased to 1000 and below 3000, while levels of OTX2 increased to 6500.

[2] = system: forebrain-committed neural stem cells; test: HD-DoE stage 2, 12-factor experiment: NKX2-1 expression; assay type: cell-based, human; settings: model / dynamic profile, in words
Procedure, shortened: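 Forebrain-committed neural stem cells were treated for 3 days after stage 1 in a 12-factor high-dimensional DoE (LDN193189, BMP7, PD0325901, MK2206, A8301, XAV939, CHIR99021, purmorphamine, SANT-1, AGN193109, TTNPB, GSI-XX) to drive ventral forebrain identity. The read-out was NKX2-1 expression. Dynamic profile modelling also targeted minimal PAX6 and NKX2-2.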

[3] = system: human pluripotent stem cells; test: HD-DoE stage 1, first 12-factor experiment: gene expression (qPCR) after 3-day treatment; assay type: cell-based; settings: for impact on expression of OTX2: dynamic profile / model; for factor contribution, expression of SIX3 / factor contribution, expression of FEZF2: positive impact; for factor contribution, expression of SIX3: model optimized for maximal SIX3, 3-day treatment, qPCR; for factor contribution, expression of FEZF2: model optimized for maximum FEZF2 at 3576
Description: This example utilizes a method of High-Dimensional Design of Experiments (HD-DoE), as previously described in Bukys et al. (2020) […] 23:101346. The method employs computerized design geometries to simultaneously test multiple process inputs and offers mathematical modeling of a deep effector/response space. The method allows for finding combinatorial signaling inputs that control a complex process, such as during cell differentiation. It allows testing of multiple plausible critical process parameters, as such parameters impact output responses, such as gene expression. Because gene expression provides hallmark features of the phenotype of, for example, a human cell, the method can be applied to identify, and understand, which signaling pathways control cell fate. In the current example, the HD-DOE method was applied with the intent to find conditions for induction of […] neural progenitor-expressed genes, directly from the pluripotent stem cell state. To develop the recipe for each stage, the impact of agonists and antagonists of multiple signaling pathways (herein called effectors) on the expression of two sets of 53 pre-selected genes, after a 3-day treatment, has been tested and modeled. These effectors are small molecules or proteins that are commonly used during stepwise differentiation of stem cells to specific fates. Choice of the effectors were based on current literature on neural induction in forebrain region of developing brain and differentiation of stem cells to neural progenitors. To test the effectors, experiments with at least 8 factors were designed that can assess the response of cells to 48 or more different combinations of effectors in a range of concentrations. To analyze the models, we focused on expression of genes involved in development and patterning of the anterior neuroectoderm and forebrain including OTX2 (Hoch et al. (2015) Cell Reports 12:482-494), SIX3 (Lagutin et al. (2003) Genes & Development 17:368-379) and FEZF2 (Zhang et al. (2014) Development 141:4794-[…]). At later stages we focused on dorsoventral patterning of telencephalon and gene expressed in ventral forebrain including NKX2-1 and absence of PAX6 which is a dorsal forebrain marker (Stoykova et al. (2000) J. Neurosci. 20:8042-8050). The impact of each effector on gene expression level is defined by a parameter called factor contribution that is calculated for each effector during the modeling. To identify the recipe for stage 1 of differentiation, 96 different combinations of effectors generated using Design-of-Experiments compression through D-optimality were robotically prepared. The effector combinations were prepared in a basal media and were subsequently added to the cells, which were then allowed to differentiate. Three days later RNA extraction was performed, and gene expression was obtained using quantitative PCR analysis. The data were normalized and modeled using partial least squares regression analysis to the effector design, resulting in the generation of gene-specific models, which after model tuning for maximal Q2 predictive power, provided explanation of the effectors ability to control the expression of individual genes, combinatorically, and individually. Solutions within the tested space could then be explored to address desirability. Optimizing for maximal expression of SIX3 at 3300 and FEZF2 1355 expression values led to robust solutions. This model was derived from testing 12 effectors including AGN193109, LDN193189, CHIR99021, XAV939, IGF2, Purmorphamine, 4-oxo-RA, TTNPB, SR11237, FGF8, PD0325901 and […]. […] The model was also optimized for maximum expression of FEZF2 separately at 3576 expression value to find any additional factors that can boost expression of forebrain genes. […] To find the set of factors that have the potential to optimize all 3 genes in this experiment, a new assessment was done through dynamic profile analysis with focus on maximal expression of OTX2, FEZF2 and SIX3.

[4] = system: forebrain-committed neural stem cells; test: Factor criticality analysis, stage 2 recipe; assay type: cell-based, human; settings: for expression level of PAX6 when the factor is removed / expression level of NKX2-2 when the factor is removed / expression level of NKX2-1 when the factor is removed: other three stage 2 factors present; for expression level of PAX6 when the factor is removed: 0 with all four factors; for expression level of NKX2-2 when the factor is removed: 100 with all four factors; for expression level of NKX2-1 when the factor is removed: 5000 with all four factors
Method: To assess the impact of the elimination of each validated factor, dynamic profile analysis was used and compared the expression level of genes of interest in absence of each finalized factor while others are present.
In the stage 2 recipe, each of the four finalized factors were removed while the other three factors remained present and expression levels of NKX2-1, PAX6 and NKX2-2 were assessed compared to presence of all four factors. Absence of PD0325901 reduced the levels of NKX2-1 and NKX2-2 while increasing PAX6 from 5000 to 3200, 100 to 0 and 0 to 5000, respectively. […] Removing XAV939 reduced the levels of NKX2-1 from 5000 to 3000, while increasing both PAX6 and NKX2-2 to 10000 and 200, respectively. Another observation was the interaction between XAV939 and Purmorphamine. In the absence of XAV939, the impact of Purmorphamine on NKX2-1 became negative and, as it is shown in interaction plot of FIG. 14, the level of NKX2-1 is higher when both factors are present.

[5] = dynamic profile analysis, in words

Structure (SMILES)	expression level of FEZF2 when the factor is removed [1]	expression level of SIX3 when the factor is removed [1]	expression level of OTX2 when the factor is removed [1]	impact on expression of NKX2-1 [2]	factor contribution, important input for high expression of SIX3 ([3]; FIG. 2 legend)	impact on expression of OTX2 ([3]; in words)	factor contribution, expression of OTX2 ([3]; positive effector, model optimized for maximum OTX2 at 6348)	factor contribution, expression of SIX3 [3]	factor contribution, expression of FEZF2 [3]	expression level of PAX6 when the factor is removed [4]	expression level of NKX2-2 when the factor is removed [4]	expression level of NKX2-1 when the factor is removed [4]	impact on expression of FEZF2 [3, 5]	impact on expression of SIX3 [3, 5]	impact on NKX2-1 in the absence of XAV939 ([4]; interaction plot FIG. 14)
c1ccc2c(-c3cnn4cc(-c5ccc(N6CCNCC6)cc5)cnc34)ccnc2c1 [LDN193189]	1000	0	4000	increase	24.9	positive impact	8	16	25	below 0	below 0	did not significantly change			
O=C(NOC[C@H](O)CO)c1ccc(F)c(F)c1Nc1ccc(I)cc1F [PD0325901]	drop	did not have a significant impact	did not have a significant impact	increase; also recorded: Positive impact		positive impact			10	5000	0	3200			
c1ccc2c(Oc3nc(Nc4ccc(N5CCOCC5)cc4)c4ncn(C5CCCCC5)c4n3)cccc2c1 [Purmorphamine]	1000	below 3000	6500	increase		negative effect		5	7				positive impact	positive impact	negative
